# Test results reported in US12662490B2, “Heterocyclic compounds” (Hoffmann-La Roche Inc., priority 2019, dated 2026).
# Target: T1, MAGL (Homo sapiens, UniProt Q99685)
# T1 sequence (Q99685 1-303): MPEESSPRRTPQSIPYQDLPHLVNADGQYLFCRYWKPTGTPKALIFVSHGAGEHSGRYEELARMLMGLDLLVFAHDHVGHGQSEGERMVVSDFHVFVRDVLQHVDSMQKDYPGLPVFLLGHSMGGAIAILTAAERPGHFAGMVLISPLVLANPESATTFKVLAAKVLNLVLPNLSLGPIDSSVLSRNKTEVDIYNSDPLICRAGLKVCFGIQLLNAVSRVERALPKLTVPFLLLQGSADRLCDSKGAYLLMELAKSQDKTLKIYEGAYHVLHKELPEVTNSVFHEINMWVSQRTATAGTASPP
# Assay: 2-AG assay (MAGL inhibitory activity; hydrolysis of 2-arachidonoylglycerol to arachidonic acid followed by mass spectrometry)
# Format: biochemical
# Settings: 15 min preincubation at RT, 8 μM 2-arachidonoylglycerol, 30 min at RT, RapidFire MS readout
# Method in brief: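 Compounds (final 12.5 μM to […], 3-fold steps) preincubated 15 min at RT with MAGL ([…]) in 50 mM TRIS, 1 mM EDTA, Tween buffer. Reaction started with 8 μM 2-arachidonoylglycerol, run 30 min at RT, quenched with ACN containing d8-arachidonic acid. Arachidonic acid quantified by RapidFire SPE-triple quadrupole MS (negative ESI), activity from arachidonic acid/d8 ratio.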
row,IC50 [nM],SMILES
1,13.5,"N#Cc1cc(-c2cc(F)cc(C(=O)N3CCN4C[C@@H](c5cc(Cl)c[nH]c5=O)OC[C@@H]4C3)c2Cl)c[nH]1 [Example 115, 4-[3-[(3R,9aS)-3-(5-chloro-2-oxo-1H-pyridin-3-yl)-3,4,6,7,9,9a-hexahydro-1H-pyrazino[2,1-c][1,4]oxazine-8-carbonyl]-2-chloro-5-fluoro-phenyl]-1H-pyrrole-2-carbonitrile]"
2,15.9,"COc1ccc(F)c(C(=O)N2CCN3C[C@@](O)(c4ccc(F)c(Cl)c4)OC[C@@H]3C2)c1Cl [Example 116, [(3R,9aS)-3-(3-chloro-4-fluoro-phenyl)-3-hydroxy-1,4,6,7,9,9a-hexahydropyrazino[2,1-c][1,4]oxazin-8-yl]-(2-chloro-6-fluoro-3-methoxy-phenyl)methanone]"
3,17.4,"N#Cc1cc(-c2cccc(C(=O)N3CCN4C[C@@H](c5cc(Cl)c[nH]c5=O)OC[C@@H]4C3)c2Cl)c[nH]1 [Example 117, 4-[3-[(3R,9aS)-3-(5-chloro-2-oxo-1H-pyridin-3-yl)-3,4,6,7,9,9a-hexahydro-1H-pyrazino[2,1-c][1,4]oxazine-8-carbonyl]-2-chloro-phenyl]-1H-pyrrole-2-carbonitrile]"
4,33.1,"O=C(c1cccc(-c2c[nH]c(=O)o2)c1Cl)N1CCN2C[C@@H](c3ccc(Cl)c(Cl)c3)OC[C@@H]2C1 [Example 118, 5-[3-[(3R,9aS)-3-(3,4-dichlorophenyl)-3,4,6,7,9,9a-hexahydro-1H-pyrazino[2,1-c][1,4]oxazine-8-carbonyl]-2-chloro-phenyl]-3H-oxazol-2-one]"
5,34.7,"COc1cccc(C(=O)N2CCN3C[C@@](O)(c4ccc(C(F)(F)F)cc4)OC[C@@H]3C2)c1Cl [Example 119, [(3R,9aS)-3-hydroxy-3-[4-(trifluoromethyl)phenyl]-1,4,6,7,9,9a-hexahydropyrazino[2,1-c][1,4]oxazin-8-yl]-(2-chloro-3-methoxy-phenyl)methanone]"
6,42.4,"COc1cccc(C(=O)N2CCN3C[C@@](O)(c4ccc(Cl)c(F)c4)OC[C@@H]3C2)c1Cl [Example 120, [(3R,9aS)-3-(4-chloro-3-fluoro-phenyl)-3-hydroxy-1,4,6,7,9,9a-hexahydropyrazino[2,1-c][1,4]oxazin-8-yl]-(2-chloro-3-methoxy-phenyl)methanone]"
7,46.4,"O=C(c1cccc(-c2c[nH]c(=O)o2)c1Cl)N1CCN2C[C@@H](c3ccc(F)c(Cl)c3)OC[C@@H]2C1 [Example 121, 5-[3-[(3R,9aS)-3-(3-chloro-4-fluoro-phenyl)-3,4,6,7,9,9a-hexahydro-1H-pyrazino[2,1-c][1,4]oxazine-8-carbonyl]-2-chloro-phenyl]-3H-oxazol-2-one]"
8,48.6,"O=C(c1cccc(-c2c[nH]c(=O)o2)c1Cl)N1CCN2C[C@@](O)(c3ccc(Cl)c(Cl)c3)OC[C@@H]2C1 [Example 122, 5-[3-[(3R,9aS)-3-(3,4-dichlorophenyl)-3-hydroxy-1,4,6,7,9,9a-hexahydropyrazino[2,1-c][1,4]oxazine-8-carbonyl]-2-chloro-phenyl]-3H-oxazol-2-one]"
9,55.7,"Cc1cc(-c2cccc(C(=O)N3CCN4C[C@@H](c5ccc(F)c(Cl)c5)OC[C@@H]4C3)c2Cl)cc(=O)[nH]1 [Example 123, 4-[3-[(3R,9aS)-3-(3-chloro-4-fluoro-phenyl)-3,4,6,7,9,9a-hexahydro-1H-pyrazino[2,1-c][1,4]oxazine-8-carbonyl]-2-chloro-phenyl]-6-methyl-1H-pyridin-2-one]"
10,57.6,"Cc1[nH]c(=O)ccc1-c1cccc(C(=O)N2CCN3C[C@@H](c4ccc(F)c(Cl)c4)OC[C@@H]3C2)c1Cl [Example 124, 5-[3-[(3R,9aS)-3-(3-chloro-4-fluoro-phenyl)-3,4,6,7,9,9a-hexahydro-1H-pyrazino[2,1-c][1,4]oxazine-8-carbonyl]-2-chloro-phenyl]-6-methyl-1H-pyridin-2-one]"
11,82.8,"COc1cccc(C(=O)N2CCN3C[C@@](O)(c4cc(Cl)cc(Br)c4)OC[C@@H]3C2)c1Cl [Example 125, [(3R,9aS)-3-(3-bromo-5-chloro-phenyl)-3-hydroxy-1,4,6,7,9,9a-hexahydropyrazino[2,1-c][1,4]oxazin-8-yl]-(2-chloro-3-methoxy-phenyl)methanone]"
12,96.2,"O=C1CN(c2cccc(C(=O)N3CCN4C[C@@H](c5ccc(F)c(Cl)c5)OC[C@@H]4C3)c2Cl)CCN1 [Example 126, 4-[3-[(3R,9aS)-3-(3-chloro-4-fluoro-phenyl)-3,4,6,7,9,9a-hexahydro-1H-pyrazino[2,1-c][1,4]oxazine-8-carbonyl]-2-chloro-phenyl]piperazin-2-one]"
13,97.7,"O=C(c1cccc(-c2cnsc2)c1Cl)N1CCN2C[C@@](O)(c3ccc(F)c(Cl)c3)OC[C@@H]2C1 [Example 127, [(3R,9aS)-3-(3-chloro-4-fluoro-phenyl)-3-hydroxy-1,4,6,7,9,9a-hexahydropyrazino[2,1-c][1,4]oxazin-8-yl]-(2-chloro-3-isothiazol-4-yl-phenyl)methanone]"
14,103,"COc1cccc(C(=O)N2CCN3C[C@@H](c4cc(F)c(F)cc4F)OC[C@@H]3C2)c1Cl [Example 128, [(3R,9aS)-3-(2,4,5-trifluorophenyl)-3,4,6,7,9,9a-hexahydro-1H-pyrazino[2,1-c][1,4]oxazin-8-yl]-(2-chloro-3-methoxy-phenyl)methanone]"
15,113,"COc1cccc(C(=O)N2CCN3C[C@@](O)(c4ccc(Cl)cc4Cl)OC[C@@H]3C2)c1Cl [Example 129, [(3R,9aS)-3-(2,4-dichlorophenyl)-3-hydroxy-1,4,6,7,9,9a-hexahydropyrazino[2,1-c][1,4]oxazin-8-yl]-(2-chloro-3-methoxy-phenyl)methanone]"
16,117,"COc1cccc(C(=O)N2CCN3C[C@@](O)(c4ccc(F)c(F)c4F)OC[C@@H]3C2)c1Cl [Example 130, [(3R,9aS)-3-hydroxy-3-(2,3,4-trifluorophenyl)-1,4,6,7,9,9a-hexahydropyrazino[2,1-c][1,4]oxazin-8-yl]-(2-chloro-3-methoxy-phenyl)methanone]"
17,118,"COc1cccc(C(=O)N2CCN3C[C@@](O)(c4cc(Br)c(OC)s4)OC[C@@H]3C2)c1Cl [Example 131, [(3S,9aS)-3-(4-bromo-5-methoxy-2-thienyl)-3-hydroxy-1,4,6,7,9,9a-hexahydropyrazino[2,1-c][1,4]oxazin-8-yl]-(2-chloro-3-methoxy-phenyl)methanone]"
18,131,"N#Cc1cc(-c2cc(F)cc(C(=O)N3CCN4C[C@@H](c5c[nH]c(C(F)(F)F)cc5=O)OC[C@@H]4C3)c2Cl)c[nH]1 [Example 132, 4-[3-[(3R,9aS)-3-[4-oxo-6-(trifluoromethyl)-1H-pyridin-3-yl]-3,4,6,7,9,9a-hexahydro-1H-pyrazino[2,1-c][1,4]oxazine-8-carbonyl]-2-chloro-5-fluoro-phenyl]-1H-pyrrole-2-carbonitrile]"
19,142,"O=C(c1cc(F)cc(-c2c[nH]nc2F)c1Cl)N1CCN2C[C@@H](c3cc(Cl)c[nH]c3=O)OC[C@@H]2C1 [Example 133, 3-[(3R,9aS)-8-[2-chloro-5-fluoro-3-(3-fluoro-1H-pyrazol-4-yl)benzoyl]-3,4,6,7,9,9a-hexahydro-1H-pyrazino[2,1-c][1,4]oxazin-3-yl]-5-chloro-1H-pyridin-2-one]"
